In US20260078341A1, “TREATMENT OF CANCER USING CHIMERIC ANTIGEN RECEPTOR” (Novartis AG, priority 2014, published 2026):
“Also recorded” adds a separate entry of the source.

System: SKOV3
Test: SKOV3 ovarian tumor model, C4-27z CAR-T cells plus exogenous cytokines
Type: in vivo, NSG mice
Settings: for antitumor efficacy of cytokine in combination with CAR-T cell injection: 5 μg daily i.p. for 7 days with 5×10^6 C4-27z CAR-T cells

Row | Substance | antitumor efficacy of cytokine in combination with CAR-T cell injection | CD4+ and CD8+ T cells in peripheral blood (15 days after adoptive transfer) | human T cell number in the tumor (73 days after tumor challenge)
1 | IL-15: common γ-chain family cytokine, exogenous | best tumor suppression | Highest numbers of CD4+ and CD8+ T cells | highest T cell number in the tumor
2 | IL-21: common γ-chain family cytokine, exogenous | best tumor suppression |  | 
3 | IL-18: immunostimulatory, proinflammatory cytokine belonging to the IL-1 family | heaviest tumor burden; also recorded: no enhanced effect on antitumor efficacy |  | 
